Assay [1] has as its target T1, Phosphodiesterase 3 (Homo sapiens, UniProt Q14432+Q13370). Briefly: Optimum inhibitory concentration required to inhibit […] (PDE3). Type of assay: protein assay.
Assay [2] addresses Dual specificity calcium/calmodulin-dependent 3',5'-cyclic nucleotide phosphodiesterase 1A (Bos taurus, UniProt P14100). Put plainly: Optimum inhibitory concentration required to inhibit c-GMP specific phosphodiesterase 1 (PDE1) of bovine aorta.
The target of assay [3] is T2, cGMP-specific 3',5'-cyclic phosphodiesterase (Bos taurus, UniProt Q28156). Put plainly: Optimum inhibitory concentration required to inhibit c-GMP specific Phosphodiesterase 5 (PDE5) of bovine lung.
Assay [4] concerns the target T2, cGMP-specific 3',5'-cyclic phosphodiesterase. Briefly: Inhibition of c-GMP specific phosphodiesterase PDE5 of bovine lung.
Assay [5] addresses T1, Phosphodiesterase 3. Briefly: Inhibition of cGMP-inhibited phosphodiesterase 3 (PDE3). The assay is classed as protein assay.

Sequence of Dual specificity calcium/calmodulin-dependent 3',5'-cyclic nucleotide phosphodiesterase 1A (P14100 whole entry): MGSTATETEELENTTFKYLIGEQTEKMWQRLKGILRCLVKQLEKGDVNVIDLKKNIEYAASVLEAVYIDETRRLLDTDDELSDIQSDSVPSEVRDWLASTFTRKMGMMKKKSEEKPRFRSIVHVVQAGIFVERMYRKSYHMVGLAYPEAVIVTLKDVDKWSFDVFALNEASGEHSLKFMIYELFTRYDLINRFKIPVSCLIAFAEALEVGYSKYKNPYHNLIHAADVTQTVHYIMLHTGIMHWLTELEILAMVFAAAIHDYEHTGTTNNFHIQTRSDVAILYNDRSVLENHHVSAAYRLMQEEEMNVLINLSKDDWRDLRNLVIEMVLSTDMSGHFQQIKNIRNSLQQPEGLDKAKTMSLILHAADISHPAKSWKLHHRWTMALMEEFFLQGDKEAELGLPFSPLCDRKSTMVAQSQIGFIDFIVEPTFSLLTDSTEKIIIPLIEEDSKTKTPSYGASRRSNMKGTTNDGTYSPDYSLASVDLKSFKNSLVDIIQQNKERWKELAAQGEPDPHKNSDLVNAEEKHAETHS

Take `CCCc1nc2c([nH]1)N1C(=N[C@@H]3CCC[C@@H]31)N(C)C2=O`: the results for the IC50 in assay [1] and in assay [2] were 80000 nM and 350 nM, respectively.
As to `CCCCCc1nc2c([nH]1)N1C(=N[C@@H]3CCC[C@@H]31)N(C)C2=O`, the IC50 (as a rule, the concentration needed to halve the response being measured) in assay [1] was found to be 20000 nM; in assay [2] it was 31 nM; in assay [3], 40 nM.
For the molecule `CCc1nc2c([nH]1)N1C(=N[C@@H]3CCC[C@@H]31)N(C)C2=O`, the IC50 came out at 150000 nM in assay [1], 295 nM in assay [2] and 1200 nM in assay [3].
Turning to `CCCCCCCc1nc2c([nH]1)N1C(=N[C@@H]3CCC[C@@H]31)N(C)C2=O`, the IC50 is 7000 nM in assay [1], 160 nM in assay [2] and 30 nM in assay [3].
Consider `CC(C)CCc1nc2c([nH]1)N1C[C@@H](C(C)C)N=C1N(C)C2=O`, for which the IC50 was 40000 nM in assay [1], 15 nM in assay [2] and 22 nM in assay [3].
With `CC(C)CCc1nc2c([nH]1)N1C(=N[C@@H]3CCC[C@@H]31)N(C)C2=O`, the IC50 is 15000 nM in assay [1] and 14 nM in assay [2].
As for `CCCCCCCCc1nc2c([nH]1)N1C(=N[C@@H]3CCC[C@@H]31)N(C)C2=O`, the IC50 in assay [4] was found to be 14 nM; in assay [5] it was 10000 nM; in assay [2], 33 nM.
Turning to `CCCCCCc1nc2c([nH]1)N1C(=N[C@@H]3CCC[C@@H]31)N(C)C2=O`, the IC50 was found to be 12000 nM in assay [1] and 36 nM in assay [2].
In the case of `CCCC(CCC)c1nc2c([nH]1)N1C(=N[C@@H]3CCC[C@@H]31)N(C)C2=O`, the 50% inhibitory concentration (IC50) worked out at 80000 nM in assay [1], 60 nM in assay [2] and 150 nM in assay [3].
On to `CCCCCCc1nc2c([nH]1)N1C[C@@H](C(C)C)N=C1N(C)C2=O`, for which the results for the IC50 in assay [1], in assay [2] and in assay [3] were 18000 nM, 25 nM and 5 nM, respectively.
Take `CC(C)CCCc1nc2c([nH]1)N1C[C@@H](C(C)C)N=C1N(C)C2=O`: the IC50 in assay [1] came to 65000 nM; in assay [2], 12 nM; in assay [3], 6 nM.
Take `Cc1nc2c([nH]1)C(=O)N(C)C1=N[C@@H]3CCC[C@@H]3N12`: the IC50 is > 300000 nM in assay [1] and 1250 nM in assay [2].
For `CC(C)CCCc1nc2c([nH]1)N1C(=N[C@@H]3CCC[C@@H]31)N(C)C2=O`, the values for the IC50 in assay [1], in assay [2] and in assay [3] were 35000 nM, 6 nM and 10 nM, respectively.
Turning to `CCCCCCc1nc2c([nH]1)N1CC3(CCCC3)N=C1N(C)C2=O`, the IC50 amounted to 15000 nM in assay [1], 14 nM in assay [2] and 11 nM in assay [3].
Regarding `CCCCc1nc2c([nH]1)N1C(=N[C@@H]3CCC[C@@H]31)N(C)C2=O`, the IC50 in assay [1] was found to be 38000 nM; in assay [2], 110 nM; in assay [3], 140 nM.
In the same order, the values of `CCC(CC)c1nc2c([nH]1)N1C(=N[C@@H]3CCC[C@@H]31)N(C)C2=O` are 150000 nM, 150 nM and 1400 nM.
As for `CCCCCCc1nc2c([nH]1)N1CC(C)(C)N=C1N(C)C2=O`, the results for the IC50 in assay [1], in assay [2] and in assay [3] were 28000 nM, 25 nM and 8 nM, respectively.

The record behind these values is ChEMBL document CHEMBL1131701, “Synthesis and evaluation of potent and selective c-GMP phosphodiesterase inhibitors” (Bioorg Med Chem Lett, 1999).
